In patent US20080096807A1, “Cyclic vasoactive intestinal peptide receptor-2 agonists” (priority 2006, published 2008):
Bridge positions count the residues as written; N and C are the ends. Square brackets hold non-standard residues; d marks the D form. Peptide text beside a SMILES is read from it. ξ: configuration not given here. Thr(3ξ) = CC(O)[C@H](N)C(=O)O; αMeV = CC(C)[C@](C)(N)C(=O)O; Nle = CCCC[C@H](N)C(=O)O

Key:
VPAC2 receptor = molecular target: T1, VPAC2 receptor (Homo sapiens, UniProt P41587); assay: Sup-T1 cAMP agonist assay; format: cell-based; settings: human T-lymphoid cell line Sup-T1 expressing VPAC2 receptor; cAMP EIA; 5 min at room temperature; read-out: Sup-T1 cAMP EC50
T1 construct: The human T-lymphoid cell line Sup-Ti, which expresses the VPAC2 receptor; host or cells: Sup-T1 (Sup-Ti [sic]) human T-lymphoid cell line
T1 sequence (P41587 24-438): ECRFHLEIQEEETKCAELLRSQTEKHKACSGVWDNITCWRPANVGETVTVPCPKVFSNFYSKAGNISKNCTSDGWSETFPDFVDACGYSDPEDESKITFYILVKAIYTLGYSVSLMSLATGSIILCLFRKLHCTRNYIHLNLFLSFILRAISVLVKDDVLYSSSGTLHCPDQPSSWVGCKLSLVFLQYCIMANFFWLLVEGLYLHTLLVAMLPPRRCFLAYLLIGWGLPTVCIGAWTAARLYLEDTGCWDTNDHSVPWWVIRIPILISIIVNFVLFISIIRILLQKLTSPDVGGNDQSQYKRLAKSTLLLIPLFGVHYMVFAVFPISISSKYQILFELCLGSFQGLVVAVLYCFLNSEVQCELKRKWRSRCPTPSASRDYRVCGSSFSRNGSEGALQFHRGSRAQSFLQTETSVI
Method in brief: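 Sup-T1 human T-lymphoid cells with endogenous VPAC2 (RPMI 1640, 25 mM HEPES, 10% FBS) were plated at 4×10^4 cells/well and exposed to compound for 5 min at room temperature. After lysis, cAMP was measured by enzyme immunoassay. EC50 came from a sigmoidal fit of 7-concentration dose-response data.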

[1] = test system: methacholine-induced bronchospasm in mice; assay: Methacholine-induced bronchospasm in mice (whole body plethysmography, Penh); format: in vivo; settings: balb/c mice; drug by aerosol for 20 minutes before spasmogen challenge; relative to vehicle
Method: Respiratory function is measured in conscious, freely moving mice using whole body plethysmographs (WBP) from BUXCO Electronics, Inc. (Troy, N.Y.). WBP chambers allow animals to move freely within the chamber while respiratory function is measured. Eight chambers are used simultaneously so that eight mice can be measured at the same time. Each WBP chamber is connected to a bias flow regulator to supply a smooth, constant flow of fresh air during testing. A transducer attached to each chamber detects pressure changes that occur as the animal breathes. Pressure signals are amplified by a MAX II Strain Gauge preamplifier and analyzed by the Biosystem XA software supplied with the system (BUXCO Electronics, Inc.). Pressure changes within each chamber are calibrated prior to testing by injecting exactly 1 ml of air through the injection port and adjusting the computer signal accordingly. Mice are placed in the WBP chambers and allowed to acclimate for 10 minutes prior to testing. Testing is conducted by letting the animals move and breathe freely for 15 minutes while the following parameters are measured: Tidal Volume (ml), Respiratory Rate (breaths per minutes), Minute Volume (tidal volume multiplied by respiratory rate, ml/min), Inspiratory Time (sec), Expiratory Time (sec), Peak Inspiratory Flow (ml/sec), and Peak Expiratory Flow (ml/sec). Raw data for each of the parameters listed above are captured in the software database and averaged once per minute to give a total of 15 data points per parameter. The average of the 15 data points is reported. Accumulated Volume (ml) is a cumulative value (not averaged) and represents the sum of all tidal volumes for the 15-minute test session. The protocol is customized to include measurements before, during, and after a spasmogen challenge to determine Penh. Dose-response effects of a particular spasmogen (i.e. methacholine (MCh), acetylcholine, etc.) are obtained by giving nebulized aerosol (30-60 sec exposure) at approximately 5-10 min intervals. Mice (balb/c) are treated with vehicle (2% DMSO in H2O) or drug dissolved in 4 ml vehicle for 20 minutes by aerosol, as described above, prior to spasmogen challenge. Penh is determined at 5, 30 and 60 minutes post-challenge. Data are reported as percent inhibition of Penh relative to vehicle.

[2] = molecular target: T2, human neutrophil elastase (Homo sapiens, UniProt P08246); assay: Peptide stability to neutrophil elastase (RP HPLC ESI MS); settings: halftime with human neutrophil elastase 1 to 2 μg/mL in PBS, ambient temperature, normalized to halftime of the reference standard
T2 sequence (P08246 30-247 limits assumed): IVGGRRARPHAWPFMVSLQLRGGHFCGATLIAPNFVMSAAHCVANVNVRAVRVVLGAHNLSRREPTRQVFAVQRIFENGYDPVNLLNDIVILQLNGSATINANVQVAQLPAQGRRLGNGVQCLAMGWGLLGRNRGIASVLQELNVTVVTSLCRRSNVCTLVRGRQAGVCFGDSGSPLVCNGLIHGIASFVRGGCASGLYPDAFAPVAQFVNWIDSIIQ

[3] = test system: LPS-induced lung inflammation in male C57BL/6 mice; assay: LPS-induced lung inflammation in male C57BL/6 mice (BAL neutrophilia); format: in vivo; settings: Dose 0.01%, BAL fluid neutrophilia
[4] = molecular target: Ac-His-Ala-Asp-Ala-MeVal-Phe-Thr-Glu-Asn-Tyr-Thr-Lys-Leu-Arg-Lys-Gln-Nle-Ala-Ala-Lys-Lys-Tyr-Leu-Asn-Asp-Leu-Leu-Lys-Gly-Gly-Thr-NH2 (Artificial Sequence); settings: scale: relative to the halftime of the reference standard
[5] = molecular target: Ac-His-Ala-Asp-Ala-MeVal-Phe-Thr-Glu-Asn-Tyr-Thr-Lys-Leu-Arg-Lys-Gln-Nle-Ala-Ala-Lys-Lys-Tyr-Leu-Asn-Asp-Leu-Lys-Lys-Gly-Gly-Thr-NH2 (Artificial Sequence); settings: scale: relative to the halftime of the reference standard
[6] = molecular target: Ac-His-Ser-Asp-Ala-MeVal-Phe-Thr-Glu-Asn-Tyr-Thr-Lys-Leu-Arg-Lys-Arg-Nle-Ala-Ala-Lys-Lys-Tyr-Leu-Asn-Asp-Leu-Lys-Lys-Gly-Gly-Thr-NH2 (Artificial Sequence); settings: scale: relative to the halftime of the reference standard
[7] = molecular target: Ac-His-Ser-Asp-Ala-MeVal-Phe-Thr-Glu-Asn-Tyr-thr-Lys-Leu-Arg-Lys-Gln-Nle-Ala-Ala-Lys-Lys-Tyr-Leu-Asn-Asp-Leu-Leu-Lys-Gly-Gly-Thr-NH2 (Artificial Sequence); settings: scale: relative to the halftime of the reference standard

| Compound | EC50 (VPAC2 receptor) [nM] | Inhibition of Penh at 5 minutes post-challenge [1] | Relative elastase stability [2] | Inhibition of LPS-induced neutrophilia [3] | Relative elastase stability [4] | Relative elastase stability [5] | Relative elastase stability [6] | Relative elastase stability [7] |
| --- | --- | --- | --- | --- | --- | --- | --- | --- |
| CCCC[C@H](NC(=O)[C@H](CCCNC(=N)N)NC(=O)[C@H](CCCCN)NC(=O)[C@H](CCCNC(=N)N)NC(=O)[C@H](CC(C)C)NC(=O)[C@H](CCCCN)NC(=O)[C@@H](NC(=O)[C@H](Cc1ccc(O)cc1)NC(=O)[C@H](CC(N)=O)NC(=O)[C@H](CCC(=O)O)NC(=O)[C@@H](NC(=O)[C@H](Cc1ccccc1)NC(=O)[C@H](CO)NC(=O)[C@H](C)NC(=O)[C@H](CC(=O)O)NC(=O)[C@H](C)NC(=O)[C@H](Cc1c[nH]cn1)NC(C)=O)C(C)O)C(C)O)C(=O)N[C@@H](CCCCN)C(=O)N[C@@H](C)C(=O)N[C@@H](CCCCN)C(=O)N[C@H]1CCCCNC(=O)C[C@@H](C(=O)N[C@@H](CC(C)C)C(=O)N[C@@H](CCCCN)C(=O)N[C@@H](CCCCN)C(=O)NCC(=O)NCC(=O)N[C@H](C(N)=O)C(C)O)NC(=O)[C@H](CC(N)=O)NC(=O)[C@H](CC(C)C)NC(=O)[C@H](Cc2ccc(O)cc2)NC1=O (stereo partly shown) [Example 18] (Ac-HADASF[Thr(3ξ)]ENY[Thr(3ξ)]KLRKR[Nle]KAKKYLNDLKKGG[Thr(3ξ)]-NH2; lactam 21-25) | 276 | + (+ >50%) | 5.1 |  |  |  |  |  |
| CCCC[C@H](NC(=O)[C@H](CCC(N)=O)NC(=O)[C@H](CCCCN)NC(=O)[C@H](CCCNC(=N)N)NC(=O)[C@H](CC(C)C)NC(=O)[C@H](CCCCN)NC(=O)[C@@H](NC(=O)[C@H](Cc1ccc(O)cc1)NC(=O)[C@H](CC(N)=O)NC(=O)[C@H](CCC(=O)O)NC(=O)[C@@H](NC(=O)[C@H](Cc1ccccc1)NC(=O)[C@H](CO)NC(=O)[C@H](C)NC(=O)[C@H](CC(=O)O)NC(=O)[C@H](C)NC(=O)[C@H](Cc1c[nH]cn1)NC(C)=O)C(C)O)C(C)O)C(=O)N[C@@H](C)C(=O)N[C@@H](C)C(=O)N[C@@H](CCCCN)C(=O)N[C@H]1CCCCNC(=O)C[C@@H](C(=O)N[C@@H](CC(C)C)C(=O)N[C@@H](CCCCN)C(=O)N[C@@H](CCCCN)C(=O)NCC(=O)NCC(=O)N[C@H](C(N)=O)C(C)O)NC(=O)[C@H](CC(N)=O)NC(=O)[C@H](CC(C)C)NC(=O)[C@H](Cc2ccc(O)cc2)NC1=O (stereo partly shown) [Example 12] (Ac-HADASF[Thr(3ξ)]ENY[Thr(3ξ)]KLRKQ[Nle]AAKKYLNDLKKGG[Thr(3ξ)]-NH2; lactam 21-25) | 7.4 | + (+ >50%) | 5.2 | + (+ 10-30%) |  |  |  |  |
| CCCC[C@H](NC(=O)[C@H](CCCNC(=N)N)NC(=O)[C@H](CCCCN)NC(=O)[C@H](CCCNC(=N)N)NC(=O)[C@H](CC(C)C)NC(=O)[C@H](CCCCN)NC(=O)[C@@H](NC(=O)[C@H](Cc1ccc(O)cc1)NC(=O)[C@H](CC(N)=O)NC(=O)[C@H](CCC(=O)O)NC(=O)[C@@H](NC(=O)[C@H](Cc1ccccc1)NC(=O)[C@H](CO)NC(=O)[C@H](C)NC(=O)[C@H](CC(=O)O)NC(=O)[C@H](CO)NC(=O)[C@H](Cc1c[nH]cn1)NC(C)=O)C(C)O)C(C)O)C(=O)N[C@@H](CCC(=O)O)C(=O)N[C@@H](C)C(=O)N[C@@H](CCCCN)C(=O)N[C@H]1CCCCNC(=O)C[C@@H](C(=O)N[C@@H](CC(C)C)C(=O)N[C@@H](CC(C)C)C(=O)N[C@@H](CCCCN)C(=O)NCC(=O)NCC(=O)N[C@H](C(N)=O)C(C)O)NC(=O)[C@H](CC(N)=O)NC(=O)[C@H](CC(C)C)NC(=O)[C@H](Cc2ccc(O)cc2)NC1=O (stereo partly shown) [Example 19] (Ac-HSDASF[Thr(3ξ)]ENY[Thr(3ξ)]KLRKR[Nle]EAKKYLNDLLKGG[Thr(3ξ)]-NH2; lactam 21-25) | 68.4 | + (+ >50%) | 3.3 | + (+ 10-30%) |  |  |  |  |
| CCCC[C@H](NC(=O)[C@H](CCC(N)=O)NC(=O)[C@H](CCCCN)NC(=O)[C@H](CCCNC(=N)N)NC(=O)[C@H](CC(C)C)NC(=O)[C@H](CCCCN)NC(=O)[C@@H](NC(=O)[C@H](Cc1ccc(O)cc1)NC(=O)[C@H](CC(N)=O)NC(=O)[C@H](CCC(=O)O)NC(=O)[C@@H](NC(=O)[C@H](Cc1ccccc1)NC(=O)[C@@](C)(NC(=O)[C@H](C)NC(=O)[C@H](CC(=O)O)NC(=O)[C@H](CO)NC(=O)[C@H](Cc1c[nH]cn1)NC(C)=O)C(C)C)C(C)O)C(C)O)C(=O)N[C@@H](C)C(=O)N[C@@H](C)C(=O)N[C@@H](CCCCN)C(=O)N[C@H]1CCCCNC(=O)C[C@@H](C(=O)N[C@@H](CC(C)C)C(=O)N[C@@H](CCCCN)C(=O)N[C@@H](CCCCN)C(=O)NCC(=O)NCC(=O)N[C@H](C(N)=O)C(C)O)NC(=O)[C@H](CC(N)=O)NC(=O)[C@H](CC(C)C)NC(=O)[C@H](Cc2ccc(O)cc2)NC1=O (stereo partly shown) [Example 6] (Ac-HSDA[αMeV]F[Thr(3ξ)]ENY[Thr(3ξ)]KLRKQ[Nle]AAKKYLNDLKKGG[Thr(3ξ)]-NH2; lactam 21-25) | 2.35 | ++ (++ <50%) | 6 | ++ (++ >30%) |  |  |  |  |
| Elastase (Human Neutrophil, Calbiochem, Cat # 324681) (from UniProt P08246) (enzyme) |  |  |  |  | 3.6 | 5.7 | 1.8 | 3.4 |
